Source: PubChem BioAssay AID1053159 (Broad Institute, 2014)

Tested on: HepG2 PCSK9 mRNA qRT-PCR, time course 0.5-28 h
Test: time-dependent decrease of PCSK9 transcript – cell-based, HepG2, RT-PCR, time course, mechanism study for Trib1 inducer project, late-stage follow-up (AID 1053159)
Conditions: dose 2.5; active compounds read low

Work on CN1C(=O)c2cc(NC(=O)c3ccc(C(F)(F)F)cc3)ccc2OC[C@@H]2O[C@H](CC(=O)NC3Cc4ccccc4C3)CC[C@@H]21 yielded a relative PCSK9 expression of 19%.
